# Source: the METLIN SMRT retention time set (Domingo-Almenara et al. 2019)
# Assay: gradient 5% acetonitrile 3 min, to 50% in 2 min, to 85% in 15 min, held 3 min, 100 µL/min
# Conditions: column: Zorbax Extend-C18 2.1 x 50 mm; eluents: water / acetonitrile, 0.1% formic acid
# Procedure, shortened: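 Over 3 months, pure standards in mixtures of ~100 molecules were run by HPLC coupled to a quadrupole time-of-flight mass spectrometer in positive and negative ionization mode. The column was a Zorbax Extend-C18 (2.1 × 50 mm, 1.8 μm) at 100 μL/min, eluted with water and acetonitrile each holding 0.1% formic acid, with 40 μL dead and 900 μL dwell volumes. Retention time was determined from adduct peaks chosen by software and checked manually.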
row,Structure (SMILES),RP-LC retention time
1,CC(C)(C)n1c(=O)c2ccc(F)cc2n1CC(=O)N1CCN(c2ccccc2)CC1,1180 s
2,CCOc1ccccc1-c1noc(CN2N=NC3C(=O)N(c4cc(OC)cc(OC)c4)C(=O)C32)n1 (configuration not stated),962 s
3,O=C(NCc1cccs1)c1ccc2c(c1)N(C(=O)c1ccc(F)cc1)CC2,880 s
4,CN(C)C(=O)Oc1ccc2c(c1)O/C(=C\C=C\c1ccccc1)C2=O,1060 s
5,COCc1c(C(=O)O)nnn1-c1ccc(F)c(C)c1,723 s
6,Fc1ccc(-c2ccc(CNCc3cccs3)o2)cc1,706 s
7,O=c1ccc(-n2cccn2)nn1CCNS(=O)(=O)c1ccc(F)c(Cl)c1,722 s
8,CCc1ccc(NC(=O)NCC2CCOCC2)cc1,732 s
9,Cn1c(=O)n(C)c2cc(CNCC(O)c3ccccc3)ccc21 (configuration not stated),569 s
10,Cc1noc(C2CN(C(=O)Cc3ccccc3)CC23CCN(C)CC3)n1 (configuration not stated),920 s
11,CC(C)(C)c1onc(OCP(=O)(O)O)c1CC(N)C(=O)O (configuration not stated),594 s
12,Clc1ccc(-c2noc(CN3CCOCC3)n2)cc1,775 s
13,COC(=O)CNC(=O)N1CCCCC1c1nc(CCOCC2CC2)no1 (configuration not stated),711 s
14,O=C(CCc1nnn2c1CN(C(=O)Nc1ccc3c(c1)OCCO3)CC2)N1CCCC1,625 s
15,CCc1ccccc1S(=O)(=O)N1CCN(c2nc3ccncc3n(C(C)C)c2=O)CC1,632 s
16,O=C(c1ccc2c(c1)OCO2)N1CCCCC1,722 s
17,COc1ccc(CNC(=O)C2CCN(c3ccc(SCc4ccccc4)nn3)CC2)cc1OC,704 s
18,CCn1cc(-c2nc(-c3ccc(OCC(C)C)cc3)no2)c(=O)c2cc(F)c(N3CCOCC3)cc21,917 s
19,CCC(=O)N1CCc2cc(C(=O)N3CCN(c4ncccn4)CC3)ccc21,697 s
20,CC(=O)N1CCC2(CC1)NC(=O)c1ccccc1O2,633 s
21,CCN1C(=O)C2(CCN(S(=O)(=O)c3ccc(CC(C)C)cc3)CC2)c2ccccc21,587 s
22,Fc1cc(F)c2nc(NCCCn3ccnc3)sc2c1,548 s
23,CC1CCCCN1c1ccn2c(=O)n(CC(=O)Nc3cc(F)cc(F)c3)nc2n1 (configuration not stated),810 s

row,Structure (SMILES),RP-LC retention time
1,CCCn1c(CCNC(=O)c2cccc(Cl)c2)nc2cccnc21,639 s
2,Cc1nc2cc(N3CC(C(=O)NCc4ccccc4Cl)CC3=O)ccc2o1 (configuration not stated),734 s
3,CC1Cc2ccc(CNC(=O)NC(C)(C)C)cc2N1C(=O)c1ccccc1 (configuration not stated),853 s
4,CSc1sc(C)cc1-c1nsc(=O)o1,1110 s
5,COc1ccc(-c2nc(N(CCCN3CCOCC3)Cc3ccco3)c3ccccc3n2)cc1,588 s
6,COc1ccc(N2CCN(S(=O)(=O)c3cc(-c4nc(C(C)C)cs4)cs3)CC2)cc1,1250 s
7,CCN1CCn2cc(S(=O)(=O)Nc3cc(Cl)ccc3OC)cc2C1=O,764 s
8,O=C(Cn1c(CO)nc2ccccc21)N1CCCc2ccccc21,628 s
9,Cc1ccc(S(=O)(=O)N2C[C@@H](F)C[C@H]2C(=O)N2CCCCC2)cc1C,823 s
10,Clc1ccc(-c2nnc(-c3cccnc3N3CCC4(CC3)OCCO4)o2)cc1,1010 s
11,COc1ccc(NS(=O)(=O)c2ccc(N)cc2)nn1,572 s
12,Cc1ccc2c(c1)C(=O)C1(O)CCN(c3ccccc3)C1=N2 (configuration not stated),646 s
13,O=C(c1ccc(Br)cc1)N1CCc2nc(-c3ccc(Cl)cc3)ncc2C1,1160 s
14,COCCN1C(=O)c2ccccc2C(C(=O)Nc2nc(C)c(C)s2)C12CCCC2 (configuration not stated),842 s
15,Cc1[nH]c(C(=O)N2CCC(CC(=O)NCCCN3CCCC(C)C3)CC2)c(C)c1C (configuration not stated),610 s
16,Cc1cc(C)c(NC(=O)Cn2nc3c(N4CCCCCC4)nccn3c2=O)c(C)c1,757 s
17,CCNC(=O)c1cnn(-c2cc(-c3nc(C)no3)ccn2)c1C,706 s
18,Cc1noc(COC2CCN(C(=O)c3ccccc3F)CC2)n1,818 s
19,O=C(c1cnn(-c2cccc(F)c2)c1-n1cccc1)N1CCN(c2ccccn2)CC1,664 s
20,CC(NC(=O)c1c(O)c2cccnc2n(-c2cccc(F)c2)c1=O)c1ccc(F)cc1 (configuration not stated),1210 s
21,Cc1cc(OCC(=O)Nc2ccnn2Cc2ccco2)cc(C)c1Cl,953 s
22,COC1CCC12CCN(C(=O)CNC(C)=O)CC2 (configuration not stated),607 s
23,COc1ccccc1CNC(=O)C1CCN(S(=O)(=O)c2ccc3c(c2)CCCC(=O)N3)CC1,816 s

row,Structure (SMILES),RP-LC retention time
1,CS(=O)(=O)N1CC[C@H]2CN(Cc3cn[nH]c3-c3ccc(F)cc3)C[C@@]2(CF)C1,576 s
2,Cc1cc2[nH]c(C(=O)Nc3cc(Cl)ccc3F)c(CN3CCOCC3)c2s1,892 s
3,COc1ccc(NC(=O)C2CCN(S(=O)(=O)c3cc(-c4noc(C)n4)cs3)CC2)cc1,871 s
4,O=C(OCc1cc(-c2cc3ccccc3o2)on1)c1ccccc1S(=O)(=O)C(F)F,1090 s
5,Cc1nc(CC(=O)NC2CCCC2)sc1C(=O)NCc1ccccc1,734 s
6,Cc1cccc(N2CCN(C(=O)C3CCN(c4cncnc4N(C)C)CC3)CC2)c1C,756 s
7,Cn1nc(-c2nnc(-c3ccc(F)cc3)o2)c2c1CCN(S(=O)(=O)c1cccc3nsnc13)C2,910 s
8,Cc1ccc(N2CC(c3nc(-c4ccc5c(c4)OCO5)no3)CC2=O)cc1Cl (configuration not stated),1050 s
9,Cc1ccc(S(=O)(=O)N2CCCC(Cn3c(C4CC4)nc4cccnc43)C2)cc1F (configuration not stated),819 s
10,Cc1ccc(-n2nc(N3CCCN(S(=O)(=O)c4ccccc4C)CC3)ccc2=O)cc1,910 s
11,O=C(Nc1cccc(Cl)c1F)N1CCC(N2CC(F)(F)C[C@H]2COCC2CC2)CC1,762 s
12,Cc1cc(=O)n(CC(=O)Nc2ccc3c(c2)OCCO3)c(N2CCCC2)n1,620 s
13,COc1cccc(CCC(=O)Nc2cc(-c3cccnc3)no2)c1,756 s
14,O=C(C1CCN(c2nnc(-c3ccccc3)o2)CC1)N1CCN(c2ccccc2)CC1,857 s
15,Cc1cccc(OCc2nnc(SCC(=O)Nc3nc(-c4ccccc4)cs3)o2)c1,1070 s
16,COc1ccc(OCc2ccc(C(=O)Nc3cc4c(cc3C(C)=O)OCO4)o2)cc1,1060 s
17,Cc1nc(S(=O)(=O)N2CCC(C(=O)N3CCN(c4ccccc4F)CC3)CC2)cn1C,719 s
18,COc1ccc(-c2n[nH]c3c2C(c2cc(OC)ccc2OC)NC3=O)cc1 (configuration not stated),729 s
19,COc1cccc(-c2nc(-c3cn(Cc4ccc(F)cc4)nn3)no2)c1,983 s
20,COc1ccc(-c2nc3ncccn3c2NCc2ccc(C)cc2)cc1,756 s
21,COc1ccc(S(=O)(=O)NCCS(=O)(=O)N2CCN(c3ccccc3)CC2)cc1,849 s
